The source made the active and inactive calls. The rule behind the calls is not given here.
Experiments:
NCI-H460 [1] = experiment: Inhibition of MAPK/ERK signaling pathway in human NCI-H460 cells exogenously expressing DOT1L R231Q mutant (unknown origin) (1 to 416 residues) assessed as decrease in RAF1 expression at 5 uM by Western blot analysis; assay type: cell-based
[2] = MRT (0 to infinity) in male Sprague-Dawley rat at 20 mg/kg, iv measured after 24 hrs by LC-MS/MS analysis; assay type: ADME, organism-based; conditions: in vivo
[3] = Toxicity in male BALB/c-nu mouse model xenografted with human NCI-H460 cells harboring DOT1L R231Q mutant assessed as effect on physical activity at 20 mg/kg, ip administered five times a week for 3 weeks; assay type: organism-based; conditions: in vivo, 504 h
NCI-H460 [4] = experiment: Antiinvasive activity against human NCI-H460 cells exogenously expressing DOT1L R231Q mutant (unknown origin) (1 to 416 residues) assessed as decrease in number of invading cells at 5 uM incubated for 72 hrs by crystal violet staining based transwell invasion assay relative to control; assay type: functional; parameters: scale not given: the % may be the effect or the level left
[5] = Toxicity in male BALB/c-nu mouse model xenografted with human NCI-H460 cells harboring DOT1L R231Q mutant assessed as effect on spleen viscera index at 20 mg/kg, ip administered five times a week for 3 weeks; assay type: organism-based; conditions: in vivo, 504 h
NCI-H460 [6] = experiment: Inhibition of colony formation in human NCI-H460 cells exogenously expressing DOT1L R231Q mutant (unknown origin) (1 to 416 residues) at 5 uM incubated for 7 to 14 days by crystal violet staining based light microscopic analysis relative to control; assay type: functional; conditions: time 7-14 day
NCI-H460 [7] = experiment: Inhibition of sphere formation in human NCI-H460 cells exogenously expressing wildtype DOT1L (unknown origin) (1 to 416 residues) assessed as reduction in self-renewal at 2.5 to 5 uM incubated for 7 to 14 days by inverted microscopic analysis; assay type: functional, cell-based; conditions: dose 2.5-5 µM, time 7-14 day
[8] = Cmax in male Sprague-Dawley rat at 20 mg/kg, ip measured after 24 hrs by LC-MS/MS analysis; assay type: ADME, organism-based; conditions: in vivo
NCI-H460 [9] = experiment: Antimigratory activity in human NCI-H460 cells exogenously expressing DOT1L R231Q mutant (unknown origin) (1 to 416 residues) assessed as decrease in number of migrating cells at 5 uM measured after 72 hrs by wound healing assay relative to control; assay type: functional; parameters: scale not given: the % may be the effect or the level left
[10] = Toxicity in male BALB/c-nu mouse model xenografted with human NCI-H460 cells harboring DOT1L R231Q mutant assessed as effect on lung viscera index at 20 mg/kg, ip administered five times a week for 3 weeks; assay type: organism-based; conditions: in vivo, 504 h
NCI-H460 [11] = experiment: Induction of DOT1L R231Q mutant (unknown origin) (1 to 416 residues) stabilization exogenously expressed in human NCI-H460 cells assessed as protection against protease E-mediated degradation preincubated for 7 days followed by protease digestion for 10 mins by DARTS assay; assay type: cell-based; conditions: dose 1.25-5 µM, time 10090.0 min
NCI-H460 [12] = experiment: Antitumor activity against human NCI-H460 cells harboring DOT1L R231Q mutant xenografted in male BALB/c-nu mouse model assessed as tumor growth inhibition at 20 mg/kg, ip administered five times a week for 3 weeks relative to control; assay type: functional; conditions: NCI-H460, 504 h, read-out: TGI
NCI-H460 [13] = experiment: Effect on H3K27me3 expression in human NCI-H460 cells exogenously expressing DOT1L R231Q mutant (unknown origin) (1 to 416 residues) at 5 uM by Western blot analysis; assay type: functional, cell-based
NCI-H460 [14] = experiment: Antiproliferative activity against human NCI-H460 cells harboring wildtype DOT1L (unknown origin) (1 to 416 residues) assessed as inhibition of cell proliferation incubated for 72 hrs by CCK-8 assay; assay type: functional, cell-based; conditions: NCI-H460, 72 h
[15] = Toxicity in male BALB/c-nu mouse model xenografted with human NCI-H460 cells harboring DOT1L R231Q mutant assessed as effect on kidney viscera index at 20 mg/kg, ip administered five times a week for 3 weeks; assay type: organism-based; conditions: in vivo, 504 h
[16] = Bioavailability in male Sprague-Dawley rat at 20 mg/kg, ip measured after 24 hrs by LC-MS/MS analysis; assay type: ADME, organism-based; conditions: in vivo
NCI-H460 [17] = experiment: Inhibition of DOT1L R231Q mutant (unknown origin) (1 to 416 residues) exogenously expressed in human NCI-H460 cells assessed as reduction in H3K79me2 level at 5 uM by Western blot analysis relative to control; assay type: cell-based
NCI-H460 [18] = experiment: Inhibition of sphere formation in human NCI-H460 cells exogenously expressing DOT1L R231Q mutant (unknown origin) (1 to 416 residues) assessed as reduction in self-renewal at 5 uM incubated for 7 to 14 days by inverted microscopic analysis relative to control; assay type: functional; conditions: time 7-14 day
NCI-H460 [19] = experiment: Antimigratory activity in human NCI-H460 cells exogenously expressing wildtype DOT1L (unknown origin) (1 to 416 residues) assessed as decrease in number of migrating cells at 5 uM measured after 72 hrs by wound healing assay relative to control; assay type: functional; parameters: scale not given: the % may be the effect or the level left
NCI-H460 [20] = experiment: Effect on H3K9me2 expression in human NCI-H460 cells exogenously expressing wildtype DOT1L (unknown origin) (1 to 416 residues) at 5 uM by Western blot analysis; assay type: functional, cell-based
[21] = target: Dual specificity mitogen-activated protein kinase kinase; MEK1/2 (Homo sapiens) (UniProt P36507+Q02750); experiment: Inhibition of MEK phosphorylation in human NCI-H460 cells exogenously expressing DOT1L R231Q mutant (unknown origin) (1 to 416 residues) at 5 uM by Western blot analysis; assay type: cell-based
NCI-H460 [22] = experiment: Downregulation of H3K79me2 expression in human NCI-H460 cells exogenously expressing DOT1L R231Q mutant (unknown origin) (1 to 416 residues) at 5 uM by Western blot analysis; assay type: functional, cell-based
NCI-H460 [23] = experiment: Inhibition of ERK phosphorylation in human NCI-H460 cells exogenously expressing DOT1L R231Q mutant (unknown origin) (1 to 416 residues) at 5 uM by Western blot analysis; assay type: cell-based
[24] = Tmax in male Sprague-Dawley rat at 20 mg/kg, iv measured after 24 hrs by LC-MS/MS analysis; assay type: ADME, organism-based; conditions: in vivo
[25] = AUC (0 to infinity) in male Sprague-Dawley rat at 20 mg/kg, ip measured after 24 hrs by LC-MS/MS analysis; assay type: ADME, organism-based; conditions: in vivo
[26] = Toxicity in male BALB/c-nu mouse model xenografted with human NCI-H460 cells harboring DOT1L R231Q mutant assessed as effect on heart viscera index at 20 mg/kg, ip administered five times a week for 3 weeks; assay type: organism-based; conditions: in vivo, 504 h
NCI-H460 [27] = experiment: Antiinvasive activity against human NCI-H460 cells exogenously expressing wildtype DOT1L (unknown origin) (1 to 416 residues) assessed as inhibition of cell invasion at 2.5 to 5 uM incubated for 72 hrs by crystal violet staining based transwell invasion assay; assay type: functional; conditions: dose 2.5-5 µM
NCI-H460 [28] = experiment: Effect on H3K36me2 expression in human NCI-H460 cells exogenously expressing DOT1L R231Q mutant (unknown origin) (1 to 416 residues) at 5 uM by Western blot analysis; assay type: functional, cell-based
NCI-H460 [29] = experiment: Inhibition of sphere formation in human NCI-H460 cells exogenously expressing DOT1L R231Q mutant (unknown origin) (1 to 416 residues) assessed as reduction in self-renewal at 2.5 to 5 uM incubated for 7 to 14 days by inverted microscopic analysis; assay type: functional, cell-based; conditions: dose 2.5-5 µM, time 7-14 day

Chain of Dual specificity mitogen-activated protein kinase kinase; MEK1/2 (Homo sapiens) (P36507 whole entry, looked up, the tested form may be a part): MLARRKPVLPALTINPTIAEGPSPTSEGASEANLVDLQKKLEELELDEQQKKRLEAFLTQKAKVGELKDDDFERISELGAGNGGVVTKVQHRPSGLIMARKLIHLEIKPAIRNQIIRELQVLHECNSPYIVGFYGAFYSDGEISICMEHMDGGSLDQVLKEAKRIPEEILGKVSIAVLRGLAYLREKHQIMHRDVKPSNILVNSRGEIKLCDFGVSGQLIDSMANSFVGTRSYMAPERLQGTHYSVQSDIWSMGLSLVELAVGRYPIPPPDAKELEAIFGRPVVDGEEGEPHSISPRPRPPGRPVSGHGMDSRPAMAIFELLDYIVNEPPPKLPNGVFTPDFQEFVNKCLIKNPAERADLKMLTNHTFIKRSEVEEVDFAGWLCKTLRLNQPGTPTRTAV
Chain of Dual specificity mitogen-activated protein kinase kinase; MEK1/2 (Homo sapiens) (Q02750 whole entry, looked up, the tested form may be a part): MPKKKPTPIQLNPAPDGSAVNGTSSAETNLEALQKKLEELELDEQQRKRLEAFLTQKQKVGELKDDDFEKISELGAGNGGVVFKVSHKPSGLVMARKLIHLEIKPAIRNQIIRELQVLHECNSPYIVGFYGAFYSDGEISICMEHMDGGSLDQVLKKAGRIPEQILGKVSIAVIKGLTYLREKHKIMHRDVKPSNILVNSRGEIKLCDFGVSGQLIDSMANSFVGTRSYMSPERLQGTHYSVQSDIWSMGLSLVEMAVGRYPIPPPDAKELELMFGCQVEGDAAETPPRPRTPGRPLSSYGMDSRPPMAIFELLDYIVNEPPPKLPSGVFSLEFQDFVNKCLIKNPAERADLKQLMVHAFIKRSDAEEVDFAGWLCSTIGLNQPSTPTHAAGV

For CC(C)(C)c1ccc(NC(=O)NCCCN(CCCN2CCOCC2)CC2(O)CCN(c3nc(Cl)nc4sccc34)C2)cc1 (centres undefined), the inhibition (NCI-H460 [1]) was “Active”, the MRT inf [2] was 4.41 h and the Activity [3] was “Non-Toxic”. For the same compound, the Activity (NCI-H460 [4]) was 77.7%, the Activity [5] was “Non-Toxic” and the inhibition at 5 µM (NCI-H460 [6]) was 72.8%. The inhibition (NCI-H460 [7]) was “Active”, the Cmax [8] was 2570 ng/mL and the Activity (NCI-H460 [9]) was 60.4%. The Activity [10] was “Non-Toxic”, the Activity (NCI-H460 [11]) was “Dose-Dependent Effect” and the inhibition in vivo at 20 mg/kg (NCI-H460 [12]) was 60.6%. The Activity (NCI-H460 [13]) was “inactive”, the IC50 (NCI-H460 [14]) was 20 µM and the Activity [15] was “Non-Toxic”. For the same compound, the bioavailability [16] was 92.2%, the inhibition (NCI-H460 [17]) was > 50% and the inhibition at 5 µM (NCI-H460 [18]) was 82%. The Activity (NCI-H460 [19]) was 38.3%, the Activity (NCI-H460 [20]) was “inactive” and the inhibition [21] was “Active”. The Activity (NCI-H460 [22]) was “Active”, the inhibition (NCI-H460 [23]) was “Active” and the Tmax [24] was 4.98 min. The AUC(0-inf) [25] was 5710 ng·h/mL, the Activity [26] was “Non-Toxic” and the Activity (NCI-H460 [27]) was “Active”. The Activity (NCI-H460 [28]) was “inactive” and the inhibition (NCI-H460 [29]) was “Active”.

Reference: ChEMBL document CHEMBL5608241, “Discovery of Novel Non-nucleoside DOT1LR231Q Inhibitors with Improved Pharmacokinetic Properties and Anti-lung Cancer Efficacy” (J Med Chem, 2024)
